Source: patent US20210163471A1, “PROGRANULIN MODULATORS AND METHODS OF USING THE SAME” (ARKUDA THERAPEUTICS, priority 2017, published 2021)
Where two headings read alike, the source gives them in different places.

Tested on: BV-2 (mouse microglia) cells
Assay: progranulin secretion from BV-2 cells, mouse progranulin ELISA of conditioned media
Assay type: cell-based
Conditions: BV-2 cells, 16 hours incubation, 8-point curves starting at 10 μM
Experimental: BV-2 cells are split the day before plating into a 96 well plate format at approximately 80%. Cells should be plated the day before and allowed for 1 hour attachment period and for 16 hour incubation. […] Standard ELISA kits to measure PGRN are available from vendors such as Adipogen, R&D, and Biovendor.
Compound potency was determined by measuring progranulin secretion from BV-2 (mouse microglia) cells. BV-2 cells were grown in RPMI with 2 mM L-glutamine supplemented with 10% fetal bovine serum. On the day of the assay, cells were plated in 96-well plates at a density of 30,000 cells/well in RPMI (Roswell Park Memorial Institute media)/L-glutamine supplemented with 2% Fetal clone serum II (plating media) and left to adhere for 1 hour. Following attachment to the plate, media was replaced with treatment (8-point curves in half-log dilutions starting at 10 μM) in plating media and incubated for 16 hours. Secreted progranulin was measured from a 1:10 dilution of the conditioned media using the R&D Systems mouse progranulin ELISA kit (cat #DY2557) and following the manufacturer's instructions.

[1] = Mus musculus, BV-2, 16 h, assay run v1, read-out: PRGN v1 (EC50, progranulin secretion)
[2] = assay run v1, read-out: PRGN v1 (EC50, progranulin secretion)
[3] = assay run v2 (same protocol, different assay), read-out: PRGN v2 (EC50, progranulin secretion)
[4] = Mus musculus, BV-2, 16 h, assay run v2 (same protocol, different assay), read-out: PRGN v2 (EC50, progranulin secretion)
[5] = Mus musculus, assay run v2 (same protocol, different assay), read-out: PRGN v2 (EC50, progranulin secretion)

Row | SMILES | EC50 [1] [µM] | also measured
1 | O=C(C[C@H]1CN2CCC1CC2)N1CCc2ccccc2[C@@H]1c1ccccc1 [Compound 1051] | 1.37 | –
2 | O=C(C[C@@H]1CN2CCC1CC2)N1CCc2ccccc2[C@@H]1c1ccccc1 [Compound 1048] | 0.88 | –
3 | COc1ccc([C@H]2c3ccccc3CCN2C(=O)C[C@@H]2CN3CCC2CC3)cc1 [Compound 1056] | 3.72 | –
4 | COc1ccc([C@@H]2c3ccccc3CCN2C(=O)O[C@@H]2CN3CCC2CC3)cc1 [Compound 1025] | – | EC50 [2]: 4.41 µM; EC50 [3]: > 10 µM
5 | CS(=O)(=O)c1ccc([C@H]2c3ccccc3CCN2C(=O)C[C@@H]2CN3CCC2CC3)cc1 [Compound 1052] | > 10 | –
6 | O=C(N[C@@H]1CN2CCC1CC2)N1CCc2ccccc2[C@@H]1c1ccc(OC2CC2)cc1 [Compound 1115] | 3.95 | EC50 [4]: 1.18 µM
7 | O=C(N[C@@H]1CN2CCC1CC2)N1CCc2ccccc2[C@@H]1c1ccc2nccn2c1 [Compound 1079] | 3.69 | –
8 | O=C(O[C@@H]1CN2CCC1CC2)N1Cc2ccccc2[C@H]1c1ccccc1 [Compound 1045] | – | EC50 [5]: > 10 µM
9 | O=C(C[C@@H]1CN2CCC1CC2)N1CCc2ccccc2[C@@H]1c1cccc(F)c1 [Compound 1062] | 1.1 | EC50 [4]: > 6.1 µM
10 | O=C(N[C@@H]1CN2CCC1CC2)N1CCc2ccccc2[C@@H]1c1ccn2cncc2c1 [Compound 1097] | > 10 | –
11 | O=C(C[C@@H]1CN2CCC1CC2)N1CCc2ccccc2[C@@H]1c1ccc(OC2CC2)cc1 [Compound 1068] | 6.14 | EC50 [4]: > 10 µM
12 | O=C(O[C@@H]1CN2CCC1CC2)N1CCc2ccccc2[C@@H]1c1ccc2scnc2c1 [Compound 1034] | – | EC50 [2]: > 10 µM; EC50 [3]: 5.77 µM
13 | O=C(N[C@@H]1CN2CCC1CC2)N1CCc2ccccc2[C@@H]1c1ccc(-n2ccnn2)cc1 [Compound 1099] | > 10 | –
14 | O=C(O[C@@H]1CN2CCC1CC2)N1CCc2ccccc2[C@H]1c1ccc2ncsc2c1 [Compound 1033] | – | EC50 [2]: > 10 µM; EC50 [3]: > 10 µM
15 | O=C1CCCN1c1ccc([C@H]2c3ccccc3CCN2C(=O)N[C@@H]2CN3CCC2CC3)cc1 [Compound 1119] | > 10 | EC50 [4]: > 10 µM
16 | O=C(N[C@@H]1CN2CCC1CC2)N1CCc2ccccc2[C@H]1c1ccc(N2CCCC2)cc1 [Compound 1104] | 5.09 | –

Row | SMILES | EC50 [1] [µM] | also measured
17 | O=C(N[C@@H]1CN2CCC1CC2)N1CCc2ccccc2[C@H]1c1ccc(O)cc1 [Compound 1094] | 1.29 | –
18 | O=C(N[C@@H]1CN2CCC1CC2)N1CCc2ccccc2[C@@H]1c1ccc(Cl)cc1 [Compound 1081] | 0.25 | –
19 | COc1ccc([C@H]2c3ccccc3CCN2C(=O)O[C@@H]2CN3CCC2CC3)cc1 [Compound 1024] | – | EC50 [2]: 2.87 µM; EC50 [3]: 2.91 µM
20 | O=S(=O)(C[C@@H]1CN2CCC1CC2)N1CCc2ccccc2[C@@H]1c1ccc(F)cc1 [Compound 1136] | – | EC50 [4]: 1.7 µM
21 | O=C(N[C@@H]1CN2CCC1CC2)N1CCc2ccccc2[C@H]1c1ccc(-n2cnnc2)cc1 [Compound 1114] | > 10 | EC50 [4]: > 10 µM
22 | COc1cc([C@@H]2c3ccccc3CCN2C(=O)O[C@@H]2CN3CCC2CC3)ccn1 [Compound 1009] | – | EC50 [2]: > 10 µM
23 | O=C(N[C@@H]1CN2CCC1CC2)N1CCc2ccccc2[C@H]1c1cnc2nccn2c1 [Compound 1118] | > 10 | EC50 [4]: > 10 µM
24 | Cc1nc2ccc([C@H]3c4ccccc4CCN3C(=O)O[C@@H]3CN4CCC3CC4)cc2o1 [Compound 1138] | – | EC50 [5]: > 10 µM
25 | COc1ccc([C@@H]2c3ccccc3CCN2C(=O)C[C@@H]2CN3CCC2CC3)cc1F [Compound 1061] | > 10 | EC50 [4]: > 10 µM
26 | COc1ccc([C@H]2c3ccccc3CCN2C(=O)N[C@@H]2CN3CCC2CC3)cn1 [Compound 1083] | 2.55 | –
27 | O=C1CCCN1c1ccc([C@H]2c3ccccc3CCN2C(=O)C[C@@H]2CN3CCC2CC3)cc1 [Compound 1066] | > 10 | EC50 [4]: > 10 µM
28 | O=C(N[C@@H]1CN2CCC1CC2)N1CCc2ccccc2[C@H]1c1cccnc1 [Compound 1086] | 3.13 | –
29 | CC(C)Oc1ccc([C@@H]2c3ccccc3CCN2C(=O)N[C@@H]2CN3CCC2CC3)cc1 [Compound 1088] | > 10 | –
30 | O=C(N[C@@H]1CN2CCC1CC2)N1CCc2ccccc2[C@H]1c1ccc(-n2ccnn2)cc1 [Compound 1100] | > 10 | –
31 | O=C(O[C@@H]1CN2CCC1CC2)N1CCc2ccccc2[C@@H]1c1ccc(OC2CC2)cc1 [Compound 1022] | – | EC50 (Mus musculus, assay run v1, read-out: PRGN v1 (EC50, progranulin secretion)): > 10 µM; EC50 [5]: > 10 µM
